Reference: US8507464B2, “Phosphoramidate alkylator prodrugs” (Threshold Pharmaceuticals, Inc., priority 2005, dated 2013)
Values after ≈ are worked out from the molar mass of the structure shown. Like-named read-outs stand apart in the source and are kept apart here.

Key:
[1] = Plasma stability (Table 2B); conditions: 30 min
[2] = system: NCI-H460 cells; test: Antiproliferation assay (Alamar Blue), anoxia vs air; conditions: Homo sapiens, NCI-H460, 2 h
[3] = system: DX-5; test: Anti-proliferation assay, hypoxia vs normoxia (Table 1B)
[4] = system: MES-SA/Dx5 cells; test: Antiproliferation assay (Alamar Blue), anoxia vs air; conditions: Homo sapiens, MES-SA/Dx5, 2 h
[5] = system: H460 cell line; test: Anti-proliferation assay, hypoxia vs normoxia (Table 1A); conditions: for IC50: Homo sapiens
[6] = system: HT29 cells; test: Antiproliferation assay (Alamar Blue), anoxia vs air; conditions: Homo sapiens, HT-29, 2 h
[7] = system: mouse (MLM) liver microsomal proteins; format: in vitro ADME
[8] = in vivo
[9] = system: HT29; test: Anti-proliferation assay, hypoxia vs normoxia (Table 1B); conditions: for IC50: Homo sapiens
[10] = system: spheroids; test: Spheroid combination with cisplatin or daunorubicin, clonogenic survival; format: cell-based, human; conditions: 2 h exposure, read-out: IC50 (μM), spheroids, cisplatin combination experiment
Protocol: The phosphoramidate alkylator prodrug was combined simultaneously with cisplatin or daunorubicin and the spreroids exposed for 2 h to the combination, followed by measurement of clonogenic survival.

[11] = system: H460 lung carcinoma spheroids; test: Spheroid model, clonogenic survival; conditions: read-out: IC90 H460 Spheroid 10% O2; 2 h exposure, 10% O2
[12] = system: HT29 xenograft; test: HT-29 xenograft mouse model with CDDP (Example 52); format: in vivo; conditions: Group 2; tumor volumes at day 25; vs vehicle group; CDDP in saline IV alone
Protocol: Female CB17/SCID mice (purchased from Charles River, Cambridge, Mass.), 7-8 weeks of age, were allowed to acclimatize for at least three days, and handled under pathogen-free conditions. Human colon carcinoma cell line HT29 was obtained from the American Type Culture Collection. The cell lines were cultured and harvested as described in Example 47 and inoculated at 3×10^6 cells/animal in the peritoneal subcutaneous space. When the tumors grew to an average volume of 100 mm^3 (day 8), each group of mice (ten per group) was administered, for three weeks, as tabulated in the table below: Compound 25 in saline, administration route—i.p., administrated 2 h before CDDP on the days the combination therapy is scheduled and CDDP (in saline, IV).
The body weight and tumor volume were determined as described in Example 47. Data are based on tumor volumes at day 25 when tumors in the vehicle group had reached sufficient size to require that the mice be sacrificed.

[13] = system: H460 cells exposed as monolayers; test: Clonogenic survival of monolayer cells (Example 35); conditions: 2 h exposure
[14] = system: human (HLM) liver microsomal proteins; test: Metabolic stability in liver microsomal protein; format: in vitro ADME; conditions: Table 2A, second study, 5 μM
[15] = system: rat (RLM) liver microsomal proteins; test: Metabolic stability in liver microsomal protein; format: in vitro ADME; conditions: 5 μM
[16] = Solubility in saline at room temperature; format: physicochemical; conditions: saline or isotonic

Cn1c(COP(=O)(N(CCCl)C2CC2)N(CCCl)C2CC2)cnc1[N+](=O)[O-] [Compound 7]
Plasma stability (% at 30 min) [1]: 85% | IC50 ([2]; read-out: IC50 H460 Air, air, 2 h exposure): 25 µM | IC50 ([2]; read-out: IC50 H460 Anoxia, anoxia, 2 h exposure): 0.14 µM | DX-5 HCR [3]: 140 | IC50 ([3]; read-out: DX-5 P H (proliferation IC50, hypoxia)): 0.6 µM | IC50 ([3]; read-out: DX-5 P N (proliferation IC50, normoxic)): 83 µM | IC50 ([4]; read-out: IC50 MES-SA/Dx5 Air): 83 µM | IC50 ([4]; read-out: IC50 MES-SA/Dx5 Anoxia): 0.59 µM | IC50 ([5]; NCI-H460, read-out: Hypoxia P (proliferation IC50)): 0.14 µM | IC50 ([5]; NCI-H460, read-out: Normoxia P (proliferation IC50)): 25 µM | HCR P ([5]; ratio of IC50 in normoxia and hypoxia): 180 | IC50 ([6]; read-out: IC50 HT29 Air): > 100 µM | IC50 ([6]; read-out: IC50 HT29 Anoxia): 7 µM | Metabolic stability (MLM) (% at 30 min) ([7]; Table 2B): 0% | MTD [8]: 250 mg/kg | HT29 HCR P [9]: >5 | IC50 ([9]; HT-29, read-out: HT29 P H (proliferation IC50, hypoxia)): 7 µM | IC50 ([9]; HT-29, read-out: HT29 P H, value in parentheses): 100 µM | IC50 ([9]; HT-29, read-out: HT29 P N (proliferation IC50, normoxic)): > 100 µM | HT29 HCR P, value in parentheses ([9]; parentheses not explained): (1)

N.N.[Cl][Pt][Cl] [Cisplatin, cis-Diaminedichloroplatinum (II), reference compound]
IC50 [10]: 14 µM | IC90 [11]: 8 µM | % Inhibition vs Group 1 [12]: 24.2% | IC90 ([13]; read-out: IC90 H460 Monolayer 0.6% O2, 0.6% O2): 7.7 µM | IC90 ([13]; read-out: IC90 H460 Monolayer Air, Air): 7.3 µM | IC90 ([13]; read-out: IC90 H460 Monolayer N2, N2): 4.2 µM

C[C@]12CC[C@H]3[C@@H](CCC4=CC(=O)CC[C@@]43C)[C@@H]1CC[C@@H]2O [Testosterone, reference compound]
Metabolic stability (% at 30 min) HLM [14]: 65% | Metabolic stability (% at 30 min) RLM ([15]; Table 1, first study): 0% | Metabolic stability (% at 30 min) RLM ([15]; Table 2A, second study): 33% | Metabolic stability (% at 30 min) MLM ([7]; Table 1, first study, 5 μM): 6%

Cn1c([N+](=O)[O-])cnc1COP(=O)(NCCBr)NCCBr [Compound 73]
solubility [16]: 10000 µg/mL (≈ 22.3 mM)

Cn1c([N+](=O)[O-])cnc1COP(=O)(N(CCCl)CCCl)N(CCCl)CCCl [Compound 155]
solubility [16]: < 1000 µg/mL
